# Test results from article PMC5834611, “A mechanism for CO regulation of ion channels” (Nature Communications, 2018).
# Experiments:
# [1] = molecular target: T1, SUR2A (Rattus norvegicus, UniProt Q63563); assay: UV-vis absorption titration of purified protein; koff by heme transfer to apo-myoglobin; assay type: binding
# T1 construct: gene Abcc9; residues S615-L933 (SUR2A^615–933; CXXHX16H motif and NBD1)
# T1 sequence (Q63563 615-933): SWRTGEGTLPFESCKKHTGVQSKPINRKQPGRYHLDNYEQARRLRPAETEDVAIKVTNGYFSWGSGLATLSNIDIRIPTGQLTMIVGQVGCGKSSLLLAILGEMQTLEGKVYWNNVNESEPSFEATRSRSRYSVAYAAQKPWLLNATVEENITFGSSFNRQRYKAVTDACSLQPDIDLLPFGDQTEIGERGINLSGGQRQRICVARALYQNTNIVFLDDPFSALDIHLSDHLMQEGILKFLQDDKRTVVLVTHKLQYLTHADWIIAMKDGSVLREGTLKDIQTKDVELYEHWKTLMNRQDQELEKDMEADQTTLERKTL
# [2] = molecular target: T1, SUR2A; assay: spectrophotometric titration; stopped-flow, resonance Raman, ultrafast spectroscopy; assay type: binding
Compound,Kd [1] [µM],Kd [2] [µM]
C=CC1=C(C)C2=Cc3c(C=C)c(C)c4[n]3[Fe]([Cl])[n]3c(c(C)c(CCC(=O)O)c3=CC3=NC(=C4)C(C)=C3CCC(=O)O)=CC1=N2 [hemin],8 ± 0.6,–
[C-]#[O+] [carbon monoxide],–,0.6 ± 0.3
